Tested on: novel coronavirus (SARS-CoV-2)
Experiment: microbe, parasite or virus in culture
Assay type: cell-based
Conditions: for IC50: Severe acute respiratory syndrome coronavirus 2, Vero, 24 h, read-out: Infection inhibitory concentration IC50

Row | Structure (SMILES) | inhibition of viral infection compared with positive controls (in words) | IC50 [µM]
1 | COC(=O)c1cc(/C=C/C(=O)N2CCC=C(Br)C2=O)ccc1OC(C)=O [Compound 11, (E)-methyl-2-acetoxy-5-(3-(3-bromo-2-oxo-5,6-dihydropyridin-1(2H)-yl)-3-oxoprop-1-en-1-yl)benzoate] | more remarkable effects than remdesivir | 1.97
2 | COC(=O)c1cc(/C=C/C(=O)N2CCC=CC2=O)ccc1OC [Compound 1, (E)-methyl-2-methoxy-5-(3-oxo-3-(2-oxo-5,6-dihydropyridin-1(2H)-yl)prop-1-en-1-yl)benzoate] | – | 4.46
3 | Cc1cccc(C)c1OCC(=O)N[C@@H](Cc1ccccc1)[C@@H](O)C[C@H](Cc1ccccc1)NC(=O)[C@H](C(C)C)N1CCCNC1=O [Lopinavir, lopinavir, reference compound] | – | 12.7
4 | O=C(/C=C/c1cccc([N+](=O)[O-])c1)N1CCC=C(Cl)C1=O [Compound 16, (E)-3-chloro-1-(3-(3-nitrophenyl)acryloyl)-5,6-dihydropyridin-2(1H)-one] | – | 4.19
5 | CCC(CC)COC(=O)[C@H](C)N[P@](=O)(OC[C@H]1O[C@@](C#N)(c2ccc3c(N)ncnn23)[C@H](O)[C@@H]1O)Oc1ccccc1 [Remdesivir, remdesivir, reference compound] | – | 2.65
6 | COC(=O)c1cc(/C=C/C(=O)N2CCC=C(Br)C2=O)ccc1OC [Compound 9, (E)-methyl-5-(3-(3-bromo-2-oxo-5,6-dihydropyridin-1(2H)-yl)-3-oxoprop-1-en-1-yl)-2-methoxybenzoate] | more remarkable effects than remdesivir | 1.6
7 | COC(=O)c1cc(/C=C/C(=O)N2CCC=C(Cl)C2=O)ccc1OC [Compound 3, (E)-methyl-5-(3-(3-chloro-2-oxo-5,6-dihydropyridin-1(2H)-yl)-3-oxoprop-1-en-1-yl)-2-methoxybenzoate] | more remarkable effects than remdesivir | 2.01
8 | COc1cc(/C=C/C(=O)N2CCC=C(Cl)C2=O)cc(OC)c1OCc1nnc(-c2cc(Cl)cc(Cl)c2)o1 [Compound 19, (E)-3-chloro-1-(3-(4-((5-(3,5-dichlorophenyl)-1,3,4-oxadiazol-2-yl)methoxy)-3,5-dimethoxyphenyl)acryloyl)-5,6-dihydropyridin-2(1H)-one] | – | 4.12
9 | COC(=O)c1cc(/C=C/C(=O)N2CCC=C(Cl)C2=O)ccc1OC(C)=O [Compound 13, (E)-methyl-2-acetoxy-5-(3-(3-chloro-2-oxo-5,6-dihydropyridin-1(2H)-yl)-3-oxoprop-1-en-1-yl)benzoate] | more remarkable effects than remdesivir | 1.86
10 | COC(=O)c1cc(/C=C/C(=O)N2CCC=C(Br)C2=O)ccc1O [Compound 10, (E)-methyl-5-(3-(3-bromo-2-oxo-5,6-dihydropyridin-1(2H)-yl)-3-oxoprop-1-en-1-yl)-2-hydroxybenzoate] | more remarkable effects than remdesivir | 2.31
11 | COC(=O)c1cc(/C=C/C(=O)N2CCC=C(Cl)C2=O)ccc1O [Compound 12, (E)-methyl-5-(3-(3-chloro-2-oxo-5,6-dihydropyridin-1(2H)-yl)-3-oxoprop-1-en-1-yl)-2-hydroxybenzoate] | more remarkable effects than remdesivir | 2.63
12 | CCN(CC)CCCC(C)Nc1ccnc2cc(Cl)ccc12 (centres unmarked) [Chloroquine, reference compound] | – | 4.1
13 | COC(=O)c1cc(/C=C/C(=O)N2CC=CC2=O)ccc1OC(C)=O [Compound 4, (E)-methyl-2-acetoxy-5-(3-oxo-3-(2-oxo-2,5-dihydro-1H-pyrrol-1-yl)prop-1-en-1-yl)benzoate] | – | 7.68
14 | O=C(/C=C/c1cccc([N+](=O)[O-])c1)N1CCC=C(Br)C1=O [Compound 17, (E)-3-bromo-1-(3-(3-nitrophenyl)acryloyl)-5,6-dihydropyridin-2(1H)-one] | – | 5.34

— patent US20240100031A1, “PHARMACEUTICAL COMPOSITION FOR PREVENTING OR TREATING VIRAL […] PIPERLONGUMINE-BASED COMPOUND AS ACTIVE INGREDIENT” (priority 2020, published 2024)
